Assay results published in patent US20110217309A1, “BIOLOGICAL MARKERS PREDICTIVE OF ANTI-CANCER RESPONSE TO INSULIN-LIKE GROWTH FACTOR-1 RECEPTOR KINASE INHIBITORS” (priority 2010, published 2011).

How the values were obtained:
BT20 = experiment: Cell Titer Glo proliferation assay; type: cell-based, human; details: BT20 breast cancer, PIK3CA mutant
From the text: (§1) Cell Lines and Culture. Human cancer cell lines, were obtained from American Type Culture Collection (ATCC, Manassas, Va.), or the following additional indicated sources, and cultured in media as described. Tumor types are also indicated: H295R (adrenocortical carcinoma; ATCC), NCI-[…], NCI-[…], SW1573 (NSCLC; ATCC), […], BxPC3 (pancreatic; ATCC), OVCAR5 (ovarian; NCI), MDAH-2774 (ovarian; ATCC), Igrov1 (ovarian; NCI), GEO (colon; Roswell Park Cancer Institute (RPCC)), HT-29 (colon; ATCC), RKO (colon; ATCC), […], 8226 (myeloma; ATCC), H929 (myeloma; ATCC), U266 (myeloma; ATCC), SKES1 (Ewings sarcoma; ATCC), RDES (Ewings sarcoma; ATCC), RD (rhabdomyosarcoma; ATCC), DU4475 (breast; ATCC), SKNAS (neuroblastoma; ATCC), 2650 (nasal SCC; ATCC), OVCAR4 (ovarian; NCI), A673 (Ewings sarcoma; ATCC), BT474 (breast; ATCC), 1386 (oral SCC; MSKCC, NY), 1186 (SCCHN; MSKCC, NY), Colo205 (colon; ATCC), HCT-15 (colon; ATCC), Fadu (oral SCC; ATCC), SKBR3 (breast; ATCC), 1483 (HNSCC; MSKCC, NY), HSC-2 (HNSCC; RIKEN BioResource Center, Tsukuba, Ibaraki, 305-0074, Japan), SKOV-3 (ovarian; ATCC), OVCAR-3 (ovarian; NCI), OVCAR-8 (ovarian; NCI), CaOV3 (ovarian; ATCC). […] The cells were routinely screened for the presence of mycoplasma (MycoAlert, Cambrex Bio Science, Baltimore, Md.). For growth inhibition assays, cells were plated and allowed to proliferate for 24 hours. […] Cell viability was assayed using the Cell Titer-Glo reagent (Promega Corp., Madison, Wis.). Proliferation Assay. […] The basis of the assay is a luminescent quantitation of ATP present in a cell culture plate well. In essence, the greater the number of viable cells in the well, the greater the level of ATP present. The assay utilizes a substrate that binds ATP to produce a luminescent signal, which can be read on a luminometer. Unless otherwise noted, the manufacturer's instructions were followed exactly. Briefly, on Day 1, cells were plated in 120 μl of 10% serum-containing growth media at a density of 4000 cells/well in a white polystyrene 96 well assay plate. […] After 72 h incubation with the inhibitor, the cells were assayed. Results were calculated as a fraction of the DMSO controlled cells.

HCC1954 = experiment: Cell Titer Glo proliferation assay; type: cell-based, human; details: HCC1954 breast cancer, PIK3CA mutant
From the text: as §1

LS174T = experiment: Cell Titer Glo proliferation assay; type: cell-based, human; details: LS174T colon cancer, PIK3CA mutant
From the text: as §1

MCF7 = experiment: Cell Titer Glo proliferation assay; type: cell-based, human; details: MCF7 breast cancer, PIK3CA mutant
From the text: as §1

OVCAR4 = experiment: Cell Titer Glo proliferation assay; type: cell-based, human; details: OVCAR4, wild type KRAS
From the text: as §1

OVK18 = experiment: Cell Titer Glo proliferation assay; type: cell-based, human; details: OVK18, wild type KRAS
From the text: as §1

T47D = experiment: Cell Titer Glo proliferation assay; type: cell-based, human; details: T47D breast cancer, PIK3CA mutant
From the text: as §1

BxPC3 = experiment: Cell Titer Glo proliferation assay; type: cell-based; details: Homo sapiens, BXPC-3, read-out: EC50 in culture in vitro
From the text: as §1

Colo205 = experiment: Cell Titer Glo proliferation assay; type: cell-based; details: Homo sapiens, COLO 205, read-out: EC50 in culture in vitro
From the text: as §1

FaDu = experiment: Cell Titer Glo proliferation assay; type: cell-based; details: Homo sapiens, read-out: EC50 in culture in vitro
From the text: as §1

H295R = experiment: Cell Titer Glo proliferation assay; type: cell-based; details: Homo sapiens, NCI-H295R; read-out: EC50 in culture in vitro
From the text: as §1

H460 = experiment: Cell Titer Glo proliferation assay; type: cell-based; details: Homo sapiens, NCI-H460; read-out: EC50 in culture in vitro
From the text: as §1

SKNAS = experiment: Cell Titer Glo proliferation assay; type: cell-based; details: Homo sapiens, SK-N-AS, read-out: EC50 in culture in vitro
From the text: as §1

BT549 = experiment: Cell Titer Glo proliferation assay, 88 cell line panel; type: cell-based, human; details: BT549 breast cancer, PTEN mutant, 72 hours
Description: (§2) Proliferation Assay. […] The basis of the assay is a luminescent quantitation of ATP present in a cell culture plate well. In essence, the greater the number of viable cells in the well, the greater the level of ATP present. The assay utilizes a substrate that binds ATP to produce a luminescent signal, which can be read on a luminometer. Unless otherwise noted, the manufacturer's instructions were followed exactly. Briefly, on Day 1, cells were plated in 120 μl of 10% serum-containing growth media at a density of 4000 cells/well in a white polystyrene 96 well assay plate. […] After 72 h incubation with the inhibitor, the cells were assayed. Results were calculated as a fraction of the DMSO controlled cells.
(§3) This included cell lines representing ovarian cancer (A2780 and EFO-27), SCCHN (HSC-4), SCLC (NCI-H446), CRC (KM12), lymphoma (MC116), breast cancer (BT549 and HCC70), and prostate cancer (PC3).

EFO-27 = experiment: as above; type: cell-based, human; details: EFO-27 ovarian cancer, PTEN mutant, 72 hours
Description: as §2, §3

HCC70 = experiment: as above; type: cell-based, human; details: HCC70 breast cancer, PTEN mutant, 72 hours
Description: as §2, §3

HSC-4 = experiment: as above; type: cell-based, human; details: HSC-4 SCCHN, PTEN mutant, 72 hours
Description: as §2, §3

NCI-H446 = experiment: as above; type: cell-based, human; details: NCI-H446 SCLC, PTEN mutant, 72 hours
Description: as §2, §3

PC3 = experiment: as above; type: cell-based, human; details: PC3 prostate cancer, PTEN mutant, 72 hours
Description: as §2, §3

SKNAS tumors = experiment: Tumor xenograft study; details: treatment in vivo for 10-14 days

C[C@]1(O)C[C@@H](c2nc(-c3ccc4ccc(-c5ccccc5)nc4c3)c3c(N)nccn32)C1 [OSI-906, cis-3-[8-amino-1-(2-phenyl-quinolin-7-yl)-imidazo[1,5-a]pyrazin-3-yl]-1-methyl-cyclobutanol]
insensitive (insensitive (EC50>10 μM)): sensitivity to OSI-906 (BT20) | sensitivity to OSI-906 (HCC1954) | sensitivity to OSI-906 (OVCAR4) | sensitivity to OSI-906 (OVK18) | sensitivity to OSI-906 (T47D) | sensitivity to OSI-906 (BT549) | sensitivity to OSI-906 (EFO-27) | sensitivity to OSI-906 (HCC70) | sensitivity to OSI-906 (HSC-4) | sensitivity to OSI-906 (NCI-H446) | sensitivity to OSI-906 (PC3)
sensitive (sensitive (EC50<1 μM)): sensitivity to OSI-906 (LS174T) | sensitivity to OSI-906 (MCF7)
71%: % TGI (tumor growth inhibition) (SKNAS tumors)
< 1000 nM: EC50 (BxPC3) | EC50 (Colo205) | EC50 (H295R) | EC50 (SKNAS)
> 10000 nM: EC50 (FaDu) | EC50 (H460)
